Activity calls are given as the source filed them. The calls are words filed in the database; no cut-off is given here.
What was measured:
[1] = target: T1, Nicotinamide N-methyltransferase (Homo sapiens, UniProt P40261); assay: Inhibition of SAH-rhodamine binding to NNMT in human 786-O cell soluble proteomic lysate preincubated for 1 hr followed by SAH-rhodamine addition measured after 5 mins by Gel-based ABPP analysis
T1 sequence (P40261 whole entry): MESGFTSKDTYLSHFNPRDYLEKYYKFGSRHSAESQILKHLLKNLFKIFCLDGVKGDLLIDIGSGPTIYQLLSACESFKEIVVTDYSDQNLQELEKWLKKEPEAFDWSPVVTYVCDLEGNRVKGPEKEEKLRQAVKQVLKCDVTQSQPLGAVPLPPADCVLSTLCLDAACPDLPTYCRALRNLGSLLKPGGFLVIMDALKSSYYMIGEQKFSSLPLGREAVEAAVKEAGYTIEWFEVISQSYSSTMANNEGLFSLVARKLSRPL

[2] = target: T1, Nicotinamide N-methyltransferase; assay: Inhibition of NNMT in human 786-O cell lysate using d4-nicotinamide as substrate preincubated for 1 hr followed by substrate and SAM addition measured after 15 to 30 mins by LC-MS analysis
[3] = target: T2, Heme oxygenase 2 (Homo sapiens) (UniProt P30519); assay: Binding affinity to HMOX2 cysteine residue in human 786-O cell soluble proteomic lysate at 5 uM incubated for 1 hr followed by cell lysis by IA-alkyne probe based isoTOP-ABPP analysis
T2 sequence (whole entry): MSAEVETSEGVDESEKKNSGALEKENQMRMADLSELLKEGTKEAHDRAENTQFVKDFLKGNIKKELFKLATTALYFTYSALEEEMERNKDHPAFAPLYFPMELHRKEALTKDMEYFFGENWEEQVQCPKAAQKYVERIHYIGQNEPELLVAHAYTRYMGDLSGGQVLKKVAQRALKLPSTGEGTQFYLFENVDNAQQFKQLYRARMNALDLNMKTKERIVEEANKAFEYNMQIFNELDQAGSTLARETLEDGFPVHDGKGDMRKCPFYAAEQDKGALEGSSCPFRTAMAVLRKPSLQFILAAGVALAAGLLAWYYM

[4] = target: T3, Aldehyde dehydrogenase 1A1 (Homo sapiens) (UniProt P00352); assay: Binding affinity to ALDH1A1 cysteine residue in human 786-O cell soluble proteomic lysate at 5 uM incubated for 1 hr followed by cell lysis by IA-alkyne probe based isoTOP-ABPP analysis
T3 sequence (whole entry): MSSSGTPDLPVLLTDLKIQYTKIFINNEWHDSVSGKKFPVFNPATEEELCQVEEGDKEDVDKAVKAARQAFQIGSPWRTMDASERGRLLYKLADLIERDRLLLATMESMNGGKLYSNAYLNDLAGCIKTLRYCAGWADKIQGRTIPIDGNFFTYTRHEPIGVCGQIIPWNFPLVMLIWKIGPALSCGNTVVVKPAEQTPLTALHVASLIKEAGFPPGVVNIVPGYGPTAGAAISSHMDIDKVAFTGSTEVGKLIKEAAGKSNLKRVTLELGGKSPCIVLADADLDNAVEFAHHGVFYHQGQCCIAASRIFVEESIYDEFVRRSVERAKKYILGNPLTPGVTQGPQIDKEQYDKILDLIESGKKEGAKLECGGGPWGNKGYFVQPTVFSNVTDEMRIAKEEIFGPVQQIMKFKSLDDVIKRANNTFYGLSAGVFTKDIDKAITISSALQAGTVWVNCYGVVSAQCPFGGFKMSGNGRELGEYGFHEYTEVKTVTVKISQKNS

[5] = target: T4, Sterol carrier protein 2 (Homo sapiens) (UniProt P22307); assay: Binding affinity to SCP2 cysteine residue in human 786-O cell soluble proteomic lysate at 5 uM incubated for 1 hr followed by cell lysis by IA-alkyne probe based isoTOP-ABPP analysis
T4 sequence (whole entry): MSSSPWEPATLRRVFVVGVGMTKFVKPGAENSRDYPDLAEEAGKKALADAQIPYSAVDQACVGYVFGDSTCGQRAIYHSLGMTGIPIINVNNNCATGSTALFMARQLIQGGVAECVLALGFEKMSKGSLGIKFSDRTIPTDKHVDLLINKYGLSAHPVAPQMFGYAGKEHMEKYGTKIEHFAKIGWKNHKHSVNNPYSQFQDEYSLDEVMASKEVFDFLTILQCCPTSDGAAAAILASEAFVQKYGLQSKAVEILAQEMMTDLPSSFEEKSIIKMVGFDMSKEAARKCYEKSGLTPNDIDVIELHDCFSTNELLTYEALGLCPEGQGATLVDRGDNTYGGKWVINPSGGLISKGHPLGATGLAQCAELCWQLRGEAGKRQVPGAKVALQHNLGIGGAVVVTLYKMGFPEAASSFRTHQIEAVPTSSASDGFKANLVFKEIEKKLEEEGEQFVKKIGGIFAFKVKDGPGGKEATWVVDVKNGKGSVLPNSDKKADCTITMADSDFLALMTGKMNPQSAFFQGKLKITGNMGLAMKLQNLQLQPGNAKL

[6] = target: T1, Nicotinamide N-methyltransferase; assay: Inhibition of NNMT in human 786-O cell lysate using d4-nicotinamide as substrate pretreated for 1 hr at 3 mins post 160 uM SAM addition followed by substrate addition measured after 15 to 30 mins by LC-MS analysis
[7] = target: T5, Cytoskeleton-associated protein 4 (Homo sapiens) (UniProt Q07065); assay: Binding affinity to CKAP4 cysteine residue in human 786-O cell soluble proteomic lysate at 5 uM incubated for 1 hr followed by cell lysis by IA-alkyne probe based isoTOP-ABPP analysis
T5 sequence (whole entry): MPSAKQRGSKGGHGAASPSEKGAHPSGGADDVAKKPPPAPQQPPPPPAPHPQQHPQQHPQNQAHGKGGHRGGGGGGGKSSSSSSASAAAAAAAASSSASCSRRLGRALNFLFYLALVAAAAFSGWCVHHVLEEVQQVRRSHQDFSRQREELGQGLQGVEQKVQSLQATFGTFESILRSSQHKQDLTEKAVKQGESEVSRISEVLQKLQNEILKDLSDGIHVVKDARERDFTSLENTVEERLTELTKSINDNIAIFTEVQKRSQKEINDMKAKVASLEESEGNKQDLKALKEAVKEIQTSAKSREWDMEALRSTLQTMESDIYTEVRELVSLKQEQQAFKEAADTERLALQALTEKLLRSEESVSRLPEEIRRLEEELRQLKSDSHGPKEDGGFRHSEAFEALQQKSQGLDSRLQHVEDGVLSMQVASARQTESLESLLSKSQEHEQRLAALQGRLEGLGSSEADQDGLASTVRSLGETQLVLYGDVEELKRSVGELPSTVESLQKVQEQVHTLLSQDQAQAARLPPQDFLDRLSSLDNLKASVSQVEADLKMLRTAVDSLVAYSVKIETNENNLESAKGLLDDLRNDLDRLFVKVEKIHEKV

[8] = target: T6, Thioredoxin domain-containing protein 17 (Homo sapiens) (UniProt Q9BRA2); assay: Binding affinity to TXNDC17 cysteine residue in human 786-O cell lysate at 5 uM incubated for 1 hr followed by cell lysis by IA-alkyne probe based isoTOP-ABPP analysis
T6 sequence (whole entry): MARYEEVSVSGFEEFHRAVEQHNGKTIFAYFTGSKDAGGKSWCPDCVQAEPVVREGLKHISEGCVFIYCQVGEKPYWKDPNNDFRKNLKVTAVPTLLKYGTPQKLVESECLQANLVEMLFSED

IC50 [1] [µM]	IC50 [2] [µM]	Activity [3]	Activity [4]	Activity [5]	IC50 [6] [µM]	Activity [7]	Activity [8]	Structure (SMILES)
22	17	Active	Active	Active	–	–	–	O=C(Nc1cccnc1Cl)c1cc(N(CCCc2ccccc2)C(=O)CCl)cc(C(F)(F)F)c1
0.35	0.18	Active	Active	–	> 100	Active	Active	CC(C)CCN(C(=O)CCl)c1cc(C(=O)NCc2cccc([N+](=O)[O-])c2)cc(C(F)(F)F)c1
